The values that follow come from US20240384226A1, “RHODOPSEUDOMONAS PALUSTRIS TIE-1 STRAINS AND METHODS FOR BIOPLASTIC PRODUCTION” (Washington University, priority 2023, published 2024).

In general, MIC refers to the lowest concentration found to suppress growth. A high value points to a need for much substance.

For this experiment, the system named is TIE-1. The experiment is described as follows: minimum inhibitory concentration (MIC) of antibiotics for TIE-1. The format is cell-based, Rhodopseudomonas palustris TIE-1. The following applies: resistance of TIE-1 to selection antibiotics; for MIC: Rhodopseudomonas palustris.

≈ marks a conversion by molar mass, not a printed value.

With gentamicin, the “minimum inhibitory concentration (MIC)” value is 200 µg/mL.

As for `O=C(N[C@H](CO)[C@H](O)c1ccc([N+](=O)[O-])cc1)C(Cl)Cl` [chloramphenicol], the MIC was found to be 100 µg/mL (≈ 309 µM).

As for `NC[C@H]1O[C@H](O[C@H]2[C@H](O)[C@@H](O[C@H]3O[C@H](CO)[C@@H](O)[C@H](N)[C@H]3O)[C@H](N)C[C@@H]2N)[C@H](O)[C@@H](O)[C@@H]1O` [kanamycin], the MIC was 50 µg/mL (≈ 103 µM).
